Source: patent US20240383874A1, “BENZENE RING DERIVATIVE, AND COMPOSITION AND PHARMACEUTICAL USE THEREOF” (Xizang Haisco Pharmaceutical Co., Ltd., priority 2020, published 2024)
Where a name gives a salt, the structure may show the parent alone.

Test system: 22RV1 cells
Test: Experiment 2 on inhibiting 22RV1 cell proliferation (7 days, CellTiter-Glo)
Type: cell-based
Details: Homo sapiens, 22Rv1, 168 h, 1% css-FBS phenol red-free medium, incubated with compound 7 days, read-out: IC50 values on proliferation inhibition of 22RV1 cells
Description: Prostate cancer cells 22RV1 were purchased from ATCC, the cell medium was RPMI 1640+10% FBS, and the cells were cultured in an incubator at 37° C. under 5% CO2. On day 1, the cells in an exponential phase were collected. With a 1% css-FBS phenol red-free medium, the cell suspension was adjusted to a corresponding concentration, plated at 2000 cells/well and incubated overnight. On day 2, compounds at different concentrations were added, and the plate was placed in the incubator and incubated for further 7 days. After the incubation was completed, according to operation instructions for a CellTiter-Glo kit (Promega, G7573), 50 μL of CTG solution, which was already pre-melted and equilibrated to room temperature, was added to each well, and the mixtures were uniformly mixed for 2 min using a microplate shaker. The plate was placed at room temperature for 10 min, and then fluorescence signal values were measured using a microplate reader (PHERAstar FSX). The results were processed according to formula (2), the survival rate of the compound at different concentrations was calculated, and the IC50 value of the compound with a survival rate of 50% was calculated using origin9.2 software with DoseResp function, wherein RLU compound was the readout of the treated group, and RLU control was the average value of the DMSO vehicle control group.

CC(C)(c1ccc(OCc2ccnc(N3CCN(C4CN(CC5CCN(c6ccc7c(c6)C(=O)N(C6CCC(=O)NC6=O)C7=O)CC5)C4)CC3)n2)cc1)c1cc(Cl)cc(C#N)c1 (centres unmarked) [Compound 56 trifluoroacetate, 3-chloro-5-(2-(4-((2-(4-(1-((1-(2-(2,6-dioxopiperidin-3-yl)-1,3-dioxoisoindolin-5-yl)piperidin-4-yl)methyl)azetidin-3-yl)piperazin-1-yl)pyrimidin-4-yl)methoxy)phenyl)propan-2-yl)benzonitrile] showed an IC50 of 716 nM.

For CC(C)(c1ccc(OCc2ccnc(N3CCN(C4CN(CC5CN(c6ccc7c(c6)C(=O)N(C6CCC(=O)NC6=O)C7=O)C5)C4)CC3)n2)cc1)c1cc(Cl)cc(C#N)c1 (centres unmarked) [Compound 57 trifluoroacetate, 3-chloro-5-(2-(4-((2-(4-(1-((1-(2-(2,6-dioxopiperidin-3-yl)-1,3-dioxoisoindolin-5-yl)azetidin-3-yl)methyl)azetidin-3-yl)piperazin-1-yl)pyrimidin-4-yl)methoxy)phenyl)propan-2-yl)benzonitrile], the IC50 was 687 nM.

CC(C)(c1ccc(OCc2ccnc(N3CCN(C4CN(CC5CCN(c6ccc7c(c6)C(=O)N(C6CCC(=O)NC6=O)C7=O)C5)C4)CC3)n2)cc1)c1cc(Cl)cc(C#N)c1 (centres unmarked) [Compound 58 trifluoroacetate, 3-chloro-5-(2-(4-((2-(4-(1-((1-(2-(2,6-dioxopiperidin-3-yl)-1,3-dioxoisoindolin-5-yl)pyrrolidin-3-yl)methyl)azetidin-3-yl)piperazin-1-yl)pyrimidin-4-yl)methoxy)phenyl)propan-2-yl)benzonitrile] was tested, and the IC50 was 744 nM.

Work on CC(C)(c1ccc(OCc2ccnc(N3CCN(C4CC5(CCN(C6CC7(CCN(c8ccc9c(c8)C(=O)N(C8CCC(=O)NC8=O)C9=O)CC7)C6)CC5)C4)CC3)n2)cc1)c1cc(Cl)cc(C#N)c1 (centres unmarked) [Compound 59 trifluoroacetate, 3-chloro-5-(2-(4-((2-(4-(7-(2-(2,6-dioxopiperidin-3-yl)-1,3-dioxoisoindolin-5-yl)-7,7′-diaza[2,7′-bispiro[3.5]nonan]-2′-yl)piperazin-1-yl)pyrimidin-4-yl)methoxy)phenyl)propan-2-yl)benzonitrile] yielded an IC50 of 647 nM.

CC(C)(c1ccc(OCc2ccnc(N3CCN(C4CC5(CCN(CC6CCN(c7ccc8c(c7)C(=O)N(C7CCC(=O)NC7=O)C8=O)CC6)CC5)C4)CC3)n2)cc1)c1cc(Cl)cc(C#N)c1 (centres unmarked) [Compound 60 trifluoroacetate, 3-chloro-5-(2-(4-((2-(4-(7-((1-(2-(2,6-dioxopiperidin-3-yl)-1,3-dioxoisoindolin-5-yl)piperidin-4-yl)methyl)-7-azaspiro[3.5]nonan-2-yl)piperazin-1-yl)pyrimidin-4-yl)methoxy)phenyl)propan-2-yl)benzonitrile] was tested, and the IC50 was 866 nM.

CC(C)(c1ccc(OCc2ccnc(N3CCN(C4CCN(CC5CN(c6ccc7c(c6)C(=O)N(C6CCC(=O)NC6=O)C7=O)C5)C4)CC3)n2)cc1)c1cc(Cl)cc(C#N)c1 (centres unmarked) [Compound 61 trifluoroacetate, 3-chloro-5-(2-(4-((2-(4-(1-((1-(2-(2,6-dioxopiperidin-3-yl)-1,3-dioxoisoindolin-5-yl)azetidin-3-yl)methyl)pyrrolidin-3-yl)piperazin-1-yl)pyrimidin-4-yl)methoxy)phenyl)propan-2-yl)benzonitrile] showed an IC50 of 632 nM.

Compound CC(C)(c1ccc(OCc2ccnc(N3CCN(C4CCN(CC5CCN(c6ccc7c(c6)C(=O)N(C6CCC(=O)NC6=O)C7=O)C5)C4)CC3)n2)cc1)c1cc(Cl)cc(C#N)c1 (centres unmarked) [Compound 62 trifluoroacetate, 3-chloro-5-(2-(4-((2-(4-(1-((1-(2-(2,6-dioxopiperidin-3-yl)-1,3-dioxoisoindolin-5-yl)pyrrolidin-3-yl)methyl)pyrrolidin-3-yl)piperazin-1-yl)pyrimidin-4-yl)methoxy)phenyl)propan-2-yl)benzonitrile] has an IC50 of 735 nM.

CC(C)(c1ccc(OCc2ccnc(N3CCN(C4CCN(CC5CCN(c6ccc7c(c6)C(=O)N(C6CCC(=O)NC6=O)C7=O)CC5)C4)CC3)n2)cc1)c1cc(Cl)cc(C#N)c1 (centres unmarked) [Compound 63 trifluoroacetate, 3-chloro-5-(2-(4-((2-(4-(1-((1-(2-(2,6-dioxopiperidin-3-yl)-1,3-dioxoisoindolin-5-yl)piperidin-4-yl)methyl)pyrrolidin-3-yl)piperazin-1-yl)pyrimidin-4-yl)methoxy)phenyl)propan-2-yl)benzonitrile] showed an IC50 of 593 nM.

CC(C)(c1ccc(OCc2ccnc(N3CCC(N4CC(N5CCN(c6ccc7c(c6)C(=O)N(C6CCC(=O)NC6=O)C7=O)CC5)C4)CC3)n2)cc1)c1cc(Cl)cc(C#N)c1 (centres unmarked) [Compound 64 trifluoroacetate, 3-chloro-5-(2-(4-((2-(4-(3-(4-(2-(2,6-dioxopiperidin-3-yl)-1,3-dioxoisoindolin-5-yl)piperazin-1-yl)azetidin-1-yl)piperidin-1-yl)pyrimidin-4-yl)methoxy)phenyl)propan-2-yl)benzonitrile] showed an IC50 of 637 nM.

With CC(C)(c1ccc(OCc2ccnc(N3CCC(N4CC(CN5CCN(c6cccc7c6C(=O)N(C6CCC(=O)NC6=O)C7=O)CC5)C4)CC3)n2)cc1)c1cc(Cl)cc(C#N)c1 (centres unmarked) [Compound 65 trifluoroacetate, 3-chloro-5-(2-(4-((2-(4-(3-((4-(2-(2,6-dioxopiperidin-3-yl)-1,3-dioxoisoindolin-4-yl)piperazin-1-yl)methyl)azetidin-1-yl)piperidin-1-yl)pyrimidin-4-yl)methoxy)phenyl)propan-2-yl)benzonitrile] the IC50 was 759 nM.

CC(C)(c1ccc(OCc2ccnc(N3CCN(CC4CCN(C5CC6(CCN(c7ccc8c(c7)C(=O)N(C7CCC(=O)NC7=O)C8=O)CC6)C5)C4)CC3)n2)cc1)c1cc(Cl)cc(C#N)c1 (centres unmarked) [Compound 66 trifluoroacetate, 3-chloro-5-(2-(4-((2-(4-((1-(7-(2-(2,6-dioxopiperidin-3-yl)-1,3-dioxoisoindolin-5-yl)-7-azaspiro[3.5]nonan-2-yl)pyrrolidin-3-yl)methyl)piperazin-1-yl)pyrimidin-4-yl)methoxy)phenyl)propan-2-yl)benzonitrile] gave an IC50 of 584 nM.

In the case of CC(C)(c1ccc(OCc2ccnc(N3CCN(CC4CCN(C5CCCN(c6ccc7c(c6)C(=O)N(C6CCC(=O)NC6=O)C7=O)C5)C4)CC3)n2)cc1)c1cc(Cl)cc(C#N)c1 (centres unmarked) [Compound 67 trifluoroacetate, 3-chloro-5-(2-(4-((2-(4-((1-(1-(2-(2,6-dioxopiperidin-3-yl)-1,3-dioxoisoindolin-5-yl)piperidin-3-yl)pyrrolidin-3-yl)methyl)piperazin-1-yl)pyrimidin-4-yl)methoxy)phenyl)propan-2-yl)benzonitrile], the IC50 is reported as 643 nM.

CC(C)(c1ccc(OCc2ccnc(N3CC4(CCN(CC5CCN(c6ccc7c(c6)C(=O)N(C6CCC(=O)NC6=O)C7=O)CC5)CC4)C3)n2)cc1)c1cc(Cl)cc(C#N)c1 (centres unmarked) [Compound 69 trifluoroacetate, 3-chloro-5-(2-(4-((2-(7-((1-(2-(2,6-dioxopiperidin-3-yl)-1,3-dioxoisoindolin-5-yl)piperidin-4-yl)methyl)-2,7-diazaspiro[3.5]nonan-2-yl)pyrimidin-4-yl)methoxy)phenyl)propan-2-yl)benzonitrile] gave an IC50 of 371 nM.

Compound CC(C)(c1ccc(OCc2ccnc(N3CC4(CCN(CC5CN(c6ccc7c(c6)C(=O)N(C6CCC(=O)NC6=O)C7=O)C5)CC4)C3)n2)cc1)c1cc(Cl)cc(C#N)c1 (centres unmarked) [Compound 70 trifluoroacetate, 3-chloro-5-(2-(4-((2-(7-((1-(2-(2,6-dioxopiperidin-3-yl)-1,3-dioxoisoindolin-5-yl)azetidin-3-yl)methyl)-2,7-diazaspiro[3.5]nonan-2-yl)pyrimidin-4-yl)methoxy)phenyl)propan-2-yl)benzonitrile] has an IC50 of 612 nM.

Compound Cn1c(=O)n(C2CCC(=O)NC2=O)c2ccc(CN3CC(N4CCC(N5CCN(c6nccc(COc7ccc(C(C)(C)c8cc(Cl)cc(C#N)c8)cc7)n6)CC5)CC4)C3)cc21 (centres unmarked) [Compound 71 trifluoroacetate, 3-chloro-5-(2-(4-((2-(4-(1-(1-((1-(2,6-dioxopiperidin-3-yl)-3-methyl-2-oxo-2,3-dihydro-1H-benzo[d]imidazol-5-yl)methyl)azetidin-3-yl)piperidin-4-yl)piperazin-1-yl)pyrimidin-4-yl)methoxy)phenyl)propan-2-yl)benzonitrile] has an IC50 of 811 nM.

CC(C)(c1ccc(OCc2ccnc(N3CC4CN(CC5CCN(c6ccc7c(c6)C(=O)N(C6CCC(=O)NC6=O)C7=O)CC5)CC4C3)n2)cc1)c1cc(Cl)cc(C#N)c1 (centres unmarked) [Compound 72 trifluoroacetate, 3-chloro-5-(2-(4-((2-(5-((1-(2-(2,6-dioxopiperidin-3-yl)-1,3-dioxoisoindolin-5-yl)piperidin-4-yl)methyl)hexahydropyrrolo[3,4-c]pyrrol-2(1H)-yl)pyrimidin-4-yl)methoxy)phenyl)propan-2-yl)benzonitrile] was tested, and the IC50 was 464 nM.

CC(C)(c1ccc(OCc2ccnc(N3CC4CN(CC5CN(c6ccc7c(c6)C(=O)N(C6CCC(=O)NC6=O)C7=O)C5)CC4C3)n2)cc1)c1cc(Cl)cc(C#N)c1 (centres unmarked) [Compound 73 trifluoroacetate, 3-chloro-5-(2-(4-((2-(5-((1-(2-(2,6-dioxopiperidin-3-yl)-1,3-dioxoisoindolin-5-yl)azetidin-3-yl)methyl)hexahydropyrrolo[3,4-c]pyrrol-2(1H)-yl)pyrimidin-4-yl)methoxy)phenyl)propan-2-yl)benzonitrile] gave an IC50 of 97 nM.
